Values joined by “and” are separate entries in the source; they are usually repeats but may differ in a detail not shown here. Equal values may be shown once. Read-outs that look alike come from different tables or passages of the source.
Biological target: ClpC1 NTD, M. smegmatis ClpC1P1P2 complex (UniProt A0R574+P9WPC9)
Assay type: biochemical
Conditions: for ClpC1 NTD peak area: replicates 1 and 2; for % Response: two replicates

Sequence of ClpC1 NTD, M. smegmatis ClpC1P1P2 complex (P9WPC9 1-156, looked up, natural form): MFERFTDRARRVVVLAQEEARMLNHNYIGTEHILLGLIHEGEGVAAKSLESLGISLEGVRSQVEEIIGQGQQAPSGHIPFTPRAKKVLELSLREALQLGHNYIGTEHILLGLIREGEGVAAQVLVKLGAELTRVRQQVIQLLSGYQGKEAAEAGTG
Sequence of ClpC1 NTD, M. smegmatis ClpC1P1P2 complex (A0R574 whole entry): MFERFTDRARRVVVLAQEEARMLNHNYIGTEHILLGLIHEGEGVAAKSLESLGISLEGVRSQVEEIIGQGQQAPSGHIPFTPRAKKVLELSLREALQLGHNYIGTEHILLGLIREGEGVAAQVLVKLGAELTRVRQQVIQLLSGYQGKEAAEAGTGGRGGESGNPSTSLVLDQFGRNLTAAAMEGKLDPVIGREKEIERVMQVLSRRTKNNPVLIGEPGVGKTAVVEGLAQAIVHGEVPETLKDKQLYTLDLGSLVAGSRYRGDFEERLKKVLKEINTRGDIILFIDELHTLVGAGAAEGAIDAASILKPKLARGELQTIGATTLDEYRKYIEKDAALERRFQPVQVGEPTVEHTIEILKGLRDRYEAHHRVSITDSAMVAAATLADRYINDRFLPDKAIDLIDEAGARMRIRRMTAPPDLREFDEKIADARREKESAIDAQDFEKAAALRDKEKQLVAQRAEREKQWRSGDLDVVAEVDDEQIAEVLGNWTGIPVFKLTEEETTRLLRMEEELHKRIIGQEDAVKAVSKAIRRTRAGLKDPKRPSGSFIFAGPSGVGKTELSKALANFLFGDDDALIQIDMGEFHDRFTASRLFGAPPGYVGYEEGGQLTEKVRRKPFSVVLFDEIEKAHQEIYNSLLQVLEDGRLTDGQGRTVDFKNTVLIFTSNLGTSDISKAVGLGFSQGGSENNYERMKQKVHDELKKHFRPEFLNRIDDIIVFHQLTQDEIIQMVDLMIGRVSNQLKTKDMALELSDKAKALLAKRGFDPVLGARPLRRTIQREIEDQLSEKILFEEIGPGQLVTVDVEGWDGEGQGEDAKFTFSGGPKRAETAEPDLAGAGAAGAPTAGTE

COC(c1ccccc1)C1NC(=O)C(C)NC(=O)C(CC(C)CO)N(C)C(=O)C(Cc2cn(Cc3cn(CCOCCOCCOCCOCCn4cc(Cn5cc(CC6NC(=O)C(C(C)C)NC(=O)C(CC(C)C)N(C)C(=O)C(C(C)C)NC(=O)C(C(OC)c7ccccc7)NC(=O)C(C)NC(=O)C(CC(C)CO)N(C)C6=O)c6ccccc65)nn4)nn3)c3ccccc23)NC(=O)C(C(C)C)NC(=O)C(CC(C)C)N(C)C(=O)C(C(C)C)NC1=O (stereo not drawn) [Compound 8]
ClpC1 NTD peak area (8 µM compound, time 0 min): 331639 and 301583
% Response (8 µM compound, time 0 min): 94.5282% and 100.62%
ClpC1 NTD peak area (8 µM compound, time 45 min): 314553 and 280109
% Response (8 µM compound, time 45 min): 83.982% and 77.683%
ClpC1 NTD peak area (8 µM compound, time 90 min): 285641 and 244656
% Response (8 µM compound, time 90 min): 56.6216% and 52.7782%
ClpC1 NTD peak area (8 µM compound, time 150 min): 191892
% Response (8 µM compound, time 150 min): 43.2573%
ClpC1 NTD peak area (8 µM compound, time 240 min): 311145 and 177822
% Response (8 µM compound, time 240 min): 45.4516% and 26.6563%
ClpC1 NTD peak area (8 µM compound, time 360 min): 222125 and 221356
% Response (8 µM compound, time 360 min): 26.4436% and 30.03%
ClpC1 NTD peak area (33 µM compound, time 0 min): 810154 and 722357
% Response (33 µM compound, time 0 min): 102.812% and 94.7011%
ClpC1 NTD peak area (33 µM compound, time 45 min): 641074 and 448402
% Response (33 µM compound, time 45 min): 59.8432% and 44.7396%
ClpC1 NTD peak area (33 µM compound, time 90 min): 173883 and 214990
% Response (33 µM compound, time 90 min): 14.8318% and 19.2596%
ClpC1 NTD peak area (33 µM compound, time 150 min): 175010 and 133678
% Response (33 µM compound, time 150 min): 13.2219% and 10.0521%
ClpC1 NTD peak area (33 µM compound, time 240 min): 91238.1 and 172941
% Response (33 µM compound, time 240 min): 6.759% and 11.5705%
ClpC1 NTD peak area (33 µM compound, time 360 min): 204242 and 62562.1
% Response (33 µM compound, time 360 min): 8.812% and 3.58%

From PMC10914731, “Homo-BacPROTAC-induced degradation of ClpC1 as a strategy against drug-resistant mycobacteria” (Nature Communications, 2024)
